# Assay results taken from patent US8044095B2, “Mixture of catechins or rather polyphenols extracted from chinese green tea or other vegetables for the prevention of prostate cancer and for the treatment of prostate hypertrophy (BPH)” (Genprofiler s.r.l., priority 2004, dated 2011).
# What was measured:
# [1] = in vivo; cited from earlier work
# [2] = test system: normal human prostate epithelial cells (EPIT); test: Dose-response growth study in normal human prostate epithelial cells (EPIT); type: cell-based; details: increasing quantities of EGCG, cells in culture
# PNT1a = test: Dose-response growth study in SV40-immortalized human prostate epithelial cells (PNT1a), compared with PC-3; type: cell-based; details: PNT1a versus PC-3 cells
# [3] = test system: prostate cancer in rats TRAMP; details: rat, in vivo
# Excerpt: To show the validity of this hypothesis we worked on a preclinical animal model of […]. One of the more important preclinical models for the study of prostate tumor in vivo consists of transgenic rats TRAMP. These animals, when recombinant homozygotes develop prostate cancer with 100% probability in the adult stage. Progress of the illness recapitulates the essential phases of onset and progress of the human ailment. Indeed, it begins with lesions of the Prostate Intraepithelial Neoplasia (PIN) type to then give full blown neoplastic histological lesions, evolve subsequently towards androgen-resistant and aggressive phenotypes, then originating extraprostate and metastatic lesions in the terminal phase. […] Reduction of the onset of this neoplasia in treated animals was 80% (only 20 cases of neoplasia in 100 against 100 out of 100 in untreated animals).
Molecule,half-life in plasma [1],growth of EPIT [2],IC50 of EGCG in PNT1a relative to PC-3 (PNT1a),adverse or collateral effect in vitro and in the animal model [3]
"O=C(O[C@@H]1Cc2c(O)cc(O)cc2O[C@@H]1c1cc(O)c(O)c(O)c1)c1cc(O)c(O)c(O)c1 [EGCG, (−)-epigallocatechina-3-gallato]",over 5 hours,not modified significantly,very lower than in PC-3,–
catechins,–,–,–,did not witness any adverse or collateral effect
